This note sets out measurements from patent US11623944B2, “Paenibacillus strain, antifungal compounds, and methods for their use” (Bayer CropScience LP, priority 2015, dated 2023).

This assay relates to Paenibacillus sp. strain NRRL B-50972. Briefly: Antibiotic sensitivity on sLB agar. It counts as cell-based. As to conditions: growth after 24, 48, 72 hours at 30° C.

Take `CCn1cc(C(=O)O)c(=O)c2ccc(C)nc21` [Nalidixic acid]: the Sensitive/Resistant entry (antibiotic 25 μg/mL) is “Sensitive”.

Turning to Polymyxin B, the Sensitive/Resistant entry (antibiotic 10 μg/mL) is “Resistant”.
